Results on one substance are retold here after US10093973B2, “Polymerase compositions and methods” (LIFE TECHNOLOGIES CORPORATION, priority 2009, dated 2018).

Where a chain is given by its changes, count along the chain named.

Common to all, as to assay type: biochemical
Assay [1] relates to AF647-C6-dG6P and Alexa Fluor 546 dye-labeled primer-template duplex. The assay is described as follows: Stopped-flow measurement of tpol (nucleotide incorporation kinetics). On the set-up: unit not given here. The following applies: tpol = 1/kpol; 7 μM AF647-C6-dG6P, 330 nM polymerase, 100 nM template/primer duplex, 2 mM MnCl2. Here is the method: In this example, the t−1 and tpol values of a Phi-29 polymerase comprising the amino acid sequence of SEQ ID NO: 1 and a modified B103 polymerase comprising the amino acid sequence of SEQ ID NO: 8 (referred to as “mB103 in the table below) and further including amino acid substitutions at various positions were measured using a stopped-flow procedure. The stopped-flow techniques for measuring tpol (1/kpol) followed the techniques described by MP Roettger (2008 Biochemistry 47:9718-9727; M. Bakhtina 2009 Biochemistry 48:3197-320).
Stopped-Flow Measurements of tpol
The template sequence (SEQ ID NO: 44) further included an Alexa Fluor 546 dye moiety bonded to the 5′ position of the template.
The kinetics of nucleotide incorporation by each polymerase was measured in an Applied Photophysics SX20 stopped-flow spectrometer by monitoring changes in fluorescence from the dye-labeled primer-template duplex complexed to enzyme, following the mixing of the enzyme-DNA complex with dye-labeled nucleotides. These dye-labeled nucleotides comprise terminal-phosphate-labeled nucleotides having an alkyl linker with a functional amine group attached to the dye, and have the general structure shown in FIG. 11. This structure includes a sugar bonded to a hexaphosphate chain at the 5′ carbon position, and to a nucleotide base (denoted as “N”). The terminal phosphate group of the hexaphosphate is linked to a 6-carbon linker, and the other end of the 6-carbon linker is attached to a dye moiety (denoted as “dye”), typically through an amide bond. In this example, the particular dye-labeled nucleotide added was a labeled nucleotide hexaphosphate comprising a guanine base at the N (base) position and an Alexa Fluor 647 (AF647) at the dye position, and is referred to herein as “AF647-C6-dG6P”.
The primer and template were annealed to form a dye-labeled primer-template duplex using standard methods. This duplex was preincubated with polymerase. The mixture included 330 nM recombinant DNA polymerase, 100 nM template/primer duplex in buffer (“reaction buffer”) comprising 50 mM Tris-HCl, pH 7.5, 50 mM NaCl, 4 mM DTT, 0.2% BSA, and 2 mM MnCl2. The dye-labeled nucleotide AF647-C6-dG6P was then added to a final concentration of 7 μM, and the resulting fluorescence was monitored over time.
The averaged (5 traces) stopped-flow fluorescence traces (>1.5 ms) were fitted with a double exponential equation (1) to extrapolate the rates of the nucleotide binding and product release, Fluorescence=A1*e^−k1*t+A2*e^−kpol*t+C (equation 1) where A1 and A2 represent corresponding fluorescence amplitudes, C is an offset constant, and k1 and kpol are the observed rate constants for the fast and slow phases of the fluorescence transition, respectively.

Assay [2] deals with ωdN4P and non-extendible AF546 primer:template duplex. The assay is described as follows: Stopped-flow t−1 measurement of Example 7. The note with it: modified versus reference polymerase, ωdN4P 14 μM. The method, then: In this example, the t−1 values of an exemplary modified polymerase comprising the amino acid of SEQ ID NO: 8 and an exemplary reference polymerase comprising the amino acid sequence of SEQ ID NO: 20 were measured and compared. These kinetic parameters were evaluated using an assay system wherein mixtures comprising a test polymerase and a primer:template duplex were mixed in a stopped-flow assay with nucleotides. To measure t−1, the primer used to form the primer:template duplex was a non-extendible primer including a dideoxynucleotide at its 3′ end, and the template was a synthetic DNA template comprising a donor Alexa Fluor 546 moiety at its 5′ end. […] The ternary complex was mixed with unlabeled nucleotides in a stopped-flow experiment, and the resulting fluorescence was monitored as described below. […]
Preincubated mixtures comprising 200 nM of a primer:templex duplex, 660 nM of test polymerase, and 14 μM of ωdN4P were prepared and then mixed with a solution comprising the unlabeled cognate nucleotide (50 μM) in a stopped-flow apparatus. The fluorescence at both 546 nm and 647 nm was monitored following mixing. The averaged stopped-flow fluorescence traces were fitted with a single exponential function having the form of Equation (1) to extrapolate the t−1 value of the test polymerase.

Assay [3] deals with AF647-C6-dG6P in [enzyme.DNA.nucleotide] ternary complex with dideoxy-primer/template duplex. The assay is described as follows: Stopped-flow measurement of t−1 (nucleotide dissociation from ternary complex). The note with it: t−1 = 1/k−1; ternary complex with 7 μM AF647-C6-dG6P chased with 50 μM non-labeled nucleotide, 2 mM MnCl2. Further details: unit not given here. The method, then: Stopped-Flow Measurements of t−1
The stopped-flow techniques for measuring t−1 ([…]) followed the techniques described by M. Bakhtina (2009 Biochemistry 48:3197-3208).
The rate of the nucleotide dissociation ([…]) from the ternary complex of [enzyme.DNA.nucleotide] was measured in an Applied Photophysics SX20 stopped-flow spectrometer by monitoring changes […] a duplex Alexa fluor 546 dye-labeled-DNA template following the mixing of the [enzyme.DNA.labeled nucleotide] ternary complex with 50 μM cognate non-labeled deoxynucleoside triphosphate in a buffer containing 50 mM Tris-HCl (pH 7.5), 50 mM NaCl, 4 mM DTT, 0.2% BSA, and 2 mM MnCl2.
The ternary complexes were prepared using: 330 nM polymerase, 100 nM template/primer duplex, and 7 μM terminal phosphate-labeled nucleotides (AF647-C6-dG6P).
The averaged stopped-flow fluorescence traces (>1.5 msec) were fitted with a single exponential equation (2) to extrapolate the rate of the nucleotide dissociation (k−1) from the [enzyme.DNA.nucleotide] ternary complex. Fluorescence=A1*e^−k−1*t+C (equation 2) where A1 represents the corresponding fluorescence amplitude, C is an offset constant, and k−1 and the observed rate constants for the fluorescence transition.

With “mB103 (SEQ ID: 8): B103 polymerase triple mutant with D166A, F383L and D384N”, the tpol in assay [1] is 14. For the same substance, the “estimated t−1 values” in assay [2] was “comparable”. Moreover, the “t−1” value in assay [3] came out at 16.
